Reference: patent US12502362B2, “Inhibitors of nucleotidyltransferase superfamily enzymes as antibiotics” (priority 2017, dated 2025)
Converted amounts (≈) assume the structure as drawn. Like-named read-outs stand apart in the source and are kept apart here.

Tests used:
[1] = tested on: S. aureus ATCC strains and MRSA; format: cell-based, Staphylococcus aureus
[2] = tested on: Staphylococcus epidermidis; format: cell-based
Method: (§1) It was also tested whether compounds #63 and #285 can inhibit other coagulase-negative Staphylococcus (CNS) including S. epidermidis, S. hominis, etc. […].

Staphylococcus hominis = format: cell-based
Method: as §1

S. aureus (ATCC 29213) = assay: MIC80 on S. aureus; format: cell-based, Staphylococcus aureus; settings: S. aureus ATCC 29213 (MSSA); ≥80% growth inhibition
Method: (§2) To further characterize the compounds, the minimal inhibitory concentration (MIC80) were determined for selected compounds. MIC80 is defined as the compound concentration at which ≥80% bacterial growth is inhibited compare to untreated controls. Meanwhile, for the selected compounds, cytotoxicity assays (CC50) were performed on a HepG2-derived hepatoblastoma cell line (HEPDES19). […] For CC50 evaluation, soluble tetrazolium dye (MTS) was used to measure mitochondrial toxicity in a human hepatoblastoma cell line (18). The bacteria (E. coli, S. saprophyticus and A. baumannii) used in MIC80 measurements were the same as that in the primary screening, but for Staphylococcus, S. aureus is used primarily because it is a common pathogen in Staphylococcaeae family, while S. saprophyticus is part of the normal human flora.

E. coli (ATCC 35218) = assay: microbe, parasite or virus in culture; format: cell-based; settings: E. coli ATCC 35218
Method: as §2

[3] = tested on: Coagulase negative Staphylococcus; assay: Antibiotic susceptibility of coagulase negative Staphylococcus strains; format: cell-based
[4] = Se1 (Staphylococcus epidermidis)
[5] = Se2 (Staphylococcus epidermidis)
[6] = Se3 (Staphylococcus epidermidis)
[7] = Se4 (Staphylococcus epidermidis)
[8] = Se5 (Staphylococcus epidermidis)

CCC[C@@H]1C[C@@H](C(=O)N[C@@H]([C@H]2O[C@H](SC)[C@H](O)[C@@H](O)[C@H]2O)[C@H](C)Cl)N(C)C1 [CLI, clindamycin]
Antibiotic susceptibility ([1]; S. aureus ATCC 25923): S
Antibiotic susceptibility ([1]; S. aureus ATCC 29213): S
Antibiotic susceptibility ([1]; S. aureus ATCC BAA 976): S
Antibiotic susceptibility ([1]; S. aureus ATCC BAA 977): R
Antibiotic susceptibility ([1]; S. aureus ATCC BAA 1026): R
Antibiotic susceptibility ([1]; Sa1 (MRSA)): R
Antibiotic susceptibility ([1]; Sa2 (MRSA)): S
Antibiotic susceptibility ([1]; Sa3 (MRSA)): R
Antibiotic susceptibility ([1]; Sa5 (MRSA)): R
Antibiotic susceptibility ([1]; Sa6 (MRSA)): R
Antibiotic susceptibility ([1]; Sa7 (MRSA)): S
Antibiotic susceptibility ([1]; Sa8 (MRSA)): S
Antibiotic susceptibility ([1]; Sa9 (MRSA)): R
Antibiotic susceptibility ([1]; Sa10 (MRSA)): R
Antibiotic susceptibility ([1]; Sa11 (MRSA)): R
Antibiotic susceptibility ([1]; Sa12 (MRSA)): R
Antibiotic susceptibility ([1]; Sa14 (MRSA)): R
Antibiotic susceptibility ([1]; Sa15 (MRSA)): R
Antibiotic susceptibility ([1]; Sa16 (MRSA)): R
Antibiotic susceptibility ([1]; Sa17 (MRSA)): S
Antibiotic susceptibility ([1]; Sa18 (MRSA)): S
Antibiotic susceptibility ([1]; Sa19 (MRSA)): R
Antibiotic susceptibility ([1]; Sa20 (MRSA)): S
Antibiotic susceptibility ([1]; Sa21 (MRSA)): S
Antibiotic susceptibility ([1]; Sa22 (MRSA)): S
Antibiotic susceptibility ([1]; Sa23 (MRSA)): S
Antibiotic susceptibility [2, 4]: R
Antibiotic susceptibility [2, 5]: R
Antibiotic susceptibility [2, 6]: R
Antibiotic susceptibility [2, 7]: R
Antibiotic susceptibility [2, 8]: R
Antibiotic susceptibility (Staphylococcus hominis; Sh1 (Staphylococcus hominis)): S
Antibiotic susceptibility (Staphylococcus hominis; Sh2 (Staphylococcus hominis)): S
Antibiotic susceptibility (Staphylococcus hominis; Sh3 (Staphylococcus hominis)): R

Cc1cc(O)c(=O)c(O)cc1-c1cccc2ccccc12 [Compound 146]
MIC80 S. aureus (S. aureus (ATCC 29213)): 19.8 µM (≈ 5.51 µg/mL)

O=C(O)c1ccccc(=O)c1O [Compound 338]
MIC80 S. aureus (S. aureus (ATCC 29213)): 19.8 µM (≈ 3.29 µg/mL)

COc1ccc(Cl)cc1C(=O)Sc1cccccc1=O [Compound 681]
MIC80 S. aureus (S. aureus (ATCC 29213)): 19.8 µM (≈ 6.07 µg/mL)
MIC80 E. coli (E. coli (ATCC 35218)): 19.8 µM (≈ 6.07 µg/mL)

O=c1cccccc1Sc1cccccc1=O [Compound 684]
MIC80 S. aureus (S. aureus (ATCC 29213)): 44.4 µM (≈ 10.8 µg/mL)

O=c1cccccc1SSc1cccccc1=O [Compound 685]
MIC80 S. aureus (S. aureus (ATCC 29213)): >100 µM
MIC80 E. coli (E. coli (ATCC 35218)): 19.8 µM (≈ 5.43 µg/mL)

CCCCCCCCCC(=O)N[C@@H](Cc1c[nH]c2ccccc12)C(=O)N[C@H](CC(N)=O)C(=O)N[C@@H](CC(=O)O)C(=O)N[C@@H]1C(=O)NCC(=O)N[C@@H](CCCN)C(=O)N[C@@H](CC(=O)O)C(=O)N[C@H](C)C(=O)N[C@@H](CC(=O)O)C(=O)NCC(=O)N[C@H](CO)C(=O)N[C@@H]([C@H](C)CC(=O)O)C(=O)N[C@@H](CC(=O)c2ccccc2N)C(=O)O[C@@H]1C [DAP, daptomycin]
Antibiotic susceptibility ([1]; S. aureus ATCC 25923): S
Antibiotic susceptibility ([1]; S. aureus ATCC 29213): S
Antibiotic susceptibility ([1]; S. aureus ATCC BAA 976): S
Antibiotic susceptibility ([1]; S. aureus ATCC BAA 977): S
Antibiotic susceptibility ([1]; S. aureus ATCC BAA 1026): S
Antibiotic susceptibility ([1]; Sa1 (MRSA)): S
Antibiotic susceptibility ([1]; Sa2 (MRSA)): S
Antibiotic susceptibility ([1]; Sa3 (MRSA)): S
Antibiotic susceptibility ([1]; Sa6 (MRSA)): S
Antibiotic susceptibility ([1]; Sa7 (MRSA)): S
Antibiotic susceptibility ([1]; Sa9 (MRSA)): S
Antibiotic susceptibility ([1]; Sa11 (MRSA)): S
Antibiotic susceptibility ([1]; Sa12 (MRSA)): S
Antibiotic susceptibility ([1]; Sa15 (MRSA)): S
Antibiotic susceptibility ([1]; Sa16 (MRSA)): S
Antibiotic susceptibility ([1]; Sa17 (MRSA)): S
Antibiotic susceptibility ([1]; Sa18 (MRSA)): S
Antibiotic susceptibility ([1]; Sa19 (MRSA)): S
Antibiotic susceptibility ([1]; Sa20 (MRSA)): S
Antibiotic susceptibility ([1]; Sa21 (MRSA)): S
Antibiotic susceptibility ([1]; Sa22 (MRSA)): S
Antibiotic susceptibility ([1]; Sa23 (MRSA)): S
Antibiotic susceptibility [2, 4]: S
Antibiotic susceptibility [2, 5]: S
Antibiotic susceptibility [2, 6]: S
Antibiotic susceptibility [2, 7]: S
Antibiotic susceptibility [2, 8]: S
Antibiotic susceptibility (Staphylococcus hominis; Sh1 (Staphylococcus hominis)): S
Antibiotic susceptibility (Staphylococcus hominis; Sh2 (Staphylococcus hominis)): S
Antibiotic susceptibility (Staphylococcus hominis; Sh3 (Staphylococcus hominis)): S
Antibiotic susceptibility ([3]; CNS1 (Coagulase negative Staphylococcus)): S
Antibiotic susceptibility ([3]; CNS2 (Coagulase negative Staphylococcus)): S
